Experiments:
[1] = target: Voltage-gated inwardly rectifying potassium channel KCNH2 (Homo sapiens, UniProt Q12809); experiment: Inhibition of human ERG incubated for 4 hrs by competitive fluorescence tracer binding based assay
[2] = target: Aurora kinase A (Homo sapiens) (UniProt O14965); experiment: Inhibition of human Aurora A at 10 uM using [H-LRRASLG] as substrate by [gamma-33P]-ATP assay relative to control
[3] = target: Tyrosine-protein kinase JAK2 (Homo sapiens) (UniProt O60674); experiment: Inhibition of human JAK2 at 10 uM using poly[Glu:Tyr] (4:1) as substrate by [gamma-33P]-ATP assay relative to control
[4] = target: Mitogen-activated protein kinase 1 (Homo sapiens) (UniProt P28482); experiment: Inhibition of human ERK2 at 10 uM using MBP as substrate by [gamma-33P]-ATP assay relative to control
[5] = Stability in rat plasma assessed as remaining compound at 10 uM incubated for 120 mins by LC-MS analysis; format: ADME, cell-free; conditions: read-out: Stability
[6] = target: Glycogen synthase kinase-3 beta (Homo sapiens) (UniProt P49841); experiment: Inhibition of human GSK3B at 10 uM using YRRAAVPPSPSLSRHSSPHQ(pS)EDEEE as substrate by [gamma-33P]-ATP assay relative to control
Sequence of Glycogen synthase kinase-3 beta (Homo sapiens) (P49841 whole entry, looked up): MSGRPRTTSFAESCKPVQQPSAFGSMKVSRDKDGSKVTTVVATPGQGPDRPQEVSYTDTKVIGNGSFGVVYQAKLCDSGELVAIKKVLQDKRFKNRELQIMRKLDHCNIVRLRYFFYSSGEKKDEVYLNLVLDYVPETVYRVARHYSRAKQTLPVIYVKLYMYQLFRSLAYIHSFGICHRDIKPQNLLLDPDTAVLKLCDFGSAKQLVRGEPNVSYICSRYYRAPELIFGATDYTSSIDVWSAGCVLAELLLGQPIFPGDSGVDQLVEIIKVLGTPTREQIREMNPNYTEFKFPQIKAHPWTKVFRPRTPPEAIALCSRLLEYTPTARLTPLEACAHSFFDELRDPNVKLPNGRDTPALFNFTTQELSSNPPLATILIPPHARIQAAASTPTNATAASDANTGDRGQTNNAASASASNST

[7] = target: Dual specificity mitogen-activated protein kinase kinase 6 (Homo sapiens) (UniProt P52564); experiment: Inhibition of human MKK6 at 10 uM using p38alpha as substrate by [gamma-33P]-ATP assay relative to control
Sequence of Dual specificity mitogen-activated protein kinase kinase 6 (Homo sapiens) (P52564 whole entry): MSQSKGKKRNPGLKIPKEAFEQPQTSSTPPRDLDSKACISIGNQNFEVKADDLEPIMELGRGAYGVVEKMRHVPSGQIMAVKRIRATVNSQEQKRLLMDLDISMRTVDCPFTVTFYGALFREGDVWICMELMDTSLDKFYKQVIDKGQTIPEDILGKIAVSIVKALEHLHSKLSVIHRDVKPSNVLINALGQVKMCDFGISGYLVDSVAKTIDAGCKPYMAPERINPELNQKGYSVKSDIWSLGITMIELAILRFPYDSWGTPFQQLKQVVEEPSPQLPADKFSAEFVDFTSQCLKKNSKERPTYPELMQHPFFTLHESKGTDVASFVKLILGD

[8] = target: Tyrosine-protein kinase Fyn (Homo sapiens) (UniProt P06241); experiment: Inhibition of human FYN at 10 uM using poly[Glu:Tyr] (4:1) as substrate by [gamma-33P]-ATP assay relative to control
[9] = target: Tyrosine-protein kinase BTK (Homo sapiens) (UniProt Q06187); experiment: Inhibition of human BTK at 10 uM using KVEKIGEGTYGVVYK as substrate by [gamma-33P]-ATP assay relative to control
[10] = target: Mast/stem cell growth factor receptor Kit (Homo sapiens) (UniProt P10721); experiment: Inhibition of human c-KIT at 10 uM using poly[Glu:Tyr] (4:1) as substrate by [gamma-33P]-ATP assay relative to control
Homo sapiens [11] = species: Homo sapiens; experiment: Selectivity index, ratio of IC50 for human c-MET to IC50 for human p38alpha
[12] = target: Cyclin-dependent kinase 2/cyclin E1 (Homo sapiens) (UniProt P24864+P24941); experiment: Inhibition of human CDK2/cyclin-E at 10 uM using histone H1 as substrate by [gamma-33P]-ATP assay relative to control; format: protein-complex assay
[13] = tested on: Serine/threonine-protein kinase B-raf (Homo sapiens), P15056 [V600E]; experiment: Inhibition of human BRAF V600E mutant at 10 uM using MEK1 (K97R) as substrate by [gamma-33P]-ATP assay relative to control
Sequence of Serine/threonine-protein kinase B-raf (Homo sapiens), P15056 [V600E] (P15056 whole entry V600E): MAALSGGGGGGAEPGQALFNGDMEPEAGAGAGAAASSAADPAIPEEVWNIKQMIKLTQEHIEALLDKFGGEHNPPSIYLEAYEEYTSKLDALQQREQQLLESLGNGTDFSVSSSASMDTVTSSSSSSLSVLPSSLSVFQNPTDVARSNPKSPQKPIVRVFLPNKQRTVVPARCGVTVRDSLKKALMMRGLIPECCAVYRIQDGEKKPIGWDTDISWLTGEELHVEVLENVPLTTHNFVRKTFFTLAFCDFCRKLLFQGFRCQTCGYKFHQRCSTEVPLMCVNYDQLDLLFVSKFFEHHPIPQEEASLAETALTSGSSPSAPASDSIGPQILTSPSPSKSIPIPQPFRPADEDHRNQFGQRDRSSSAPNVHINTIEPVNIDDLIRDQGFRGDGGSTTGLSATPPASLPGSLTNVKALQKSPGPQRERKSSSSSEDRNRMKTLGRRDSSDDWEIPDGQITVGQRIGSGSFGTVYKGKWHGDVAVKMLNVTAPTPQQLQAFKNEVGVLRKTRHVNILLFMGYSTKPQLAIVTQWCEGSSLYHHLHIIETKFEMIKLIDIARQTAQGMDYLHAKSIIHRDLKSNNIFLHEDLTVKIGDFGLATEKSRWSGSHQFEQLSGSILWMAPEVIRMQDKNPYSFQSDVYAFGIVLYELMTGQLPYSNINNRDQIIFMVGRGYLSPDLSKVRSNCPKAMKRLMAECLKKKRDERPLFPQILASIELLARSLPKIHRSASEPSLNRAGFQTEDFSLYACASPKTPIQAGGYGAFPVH

[14] = target: Serine/threonine-protein kinase mTOR (Homo sapiens) (UniProt P42345); experiment: Inhibition of human mTOR at 10 uM using 4EBP1 as substrate by [gamma-33P]-ATP assay relative to control
[15] = target: Hepatocyte growth factor receptor (Homo sapiens, UniProt P08581); experiment: Inhibition of human c-MET at 10 uM using KKKSPGEYVNIEFG as substrate by [gamma-33P]-ATP assay relative to control
Sequence of Hepatocyte growth factor receptor (P08581 whole entry): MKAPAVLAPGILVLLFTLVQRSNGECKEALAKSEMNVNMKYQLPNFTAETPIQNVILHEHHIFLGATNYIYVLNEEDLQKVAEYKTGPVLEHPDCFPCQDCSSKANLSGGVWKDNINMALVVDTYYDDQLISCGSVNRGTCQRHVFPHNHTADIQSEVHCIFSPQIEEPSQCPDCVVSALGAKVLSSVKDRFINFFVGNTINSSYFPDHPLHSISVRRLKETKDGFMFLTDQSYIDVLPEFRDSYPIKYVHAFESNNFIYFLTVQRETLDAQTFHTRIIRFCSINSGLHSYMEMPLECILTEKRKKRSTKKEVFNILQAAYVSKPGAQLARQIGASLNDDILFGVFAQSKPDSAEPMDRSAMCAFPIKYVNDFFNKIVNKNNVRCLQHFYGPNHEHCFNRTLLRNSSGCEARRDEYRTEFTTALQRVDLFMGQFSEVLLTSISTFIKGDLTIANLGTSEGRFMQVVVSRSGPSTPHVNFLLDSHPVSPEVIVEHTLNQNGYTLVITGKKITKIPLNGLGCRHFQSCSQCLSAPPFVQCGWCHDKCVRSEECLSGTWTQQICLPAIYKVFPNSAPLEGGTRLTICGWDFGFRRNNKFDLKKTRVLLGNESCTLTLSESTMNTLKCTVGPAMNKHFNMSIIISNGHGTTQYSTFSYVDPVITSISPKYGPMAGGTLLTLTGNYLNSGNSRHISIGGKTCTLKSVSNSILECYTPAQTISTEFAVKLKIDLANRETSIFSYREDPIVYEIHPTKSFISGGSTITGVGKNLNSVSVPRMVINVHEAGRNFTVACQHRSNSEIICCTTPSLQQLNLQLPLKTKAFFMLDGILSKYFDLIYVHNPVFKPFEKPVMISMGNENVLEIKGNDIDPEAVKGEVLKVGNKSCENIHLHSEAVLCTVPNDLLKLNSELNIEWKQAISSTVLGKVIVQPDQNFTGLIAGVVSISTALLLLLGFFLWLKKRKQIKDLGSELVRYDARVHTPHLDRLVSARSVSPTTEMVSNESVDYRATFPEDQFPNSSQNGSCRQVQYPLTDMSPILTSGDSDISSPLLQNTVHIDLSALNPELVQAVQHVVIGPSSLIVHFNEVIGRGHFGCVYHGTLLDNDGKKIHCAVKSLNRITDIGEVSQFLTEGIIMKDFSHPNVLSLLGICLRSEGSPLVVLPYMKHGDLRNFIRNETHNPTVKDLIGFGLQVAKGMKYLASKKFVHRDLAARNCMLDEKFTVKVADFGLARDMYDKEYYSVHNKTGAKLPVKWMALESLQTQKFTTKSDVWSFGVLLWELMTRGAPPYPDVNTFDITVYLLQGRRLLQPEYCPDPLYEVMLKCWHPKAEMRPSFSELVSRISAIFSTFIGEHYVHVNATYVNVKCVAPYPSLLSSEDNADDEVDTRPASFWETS

[16] = target: Mitogen-activated protein kinase 11 (Homo sapiens) (UniProt Q15759); experiment: Inhibition of human p38beta at 10 uM using MBP as substrate by [gamma-33P]-ATP assay relative to control
Homo sapiens [17] = species: Homo sapiens; experiment: Selectivity index, ratio of IC50 for human BRAF V600E mutant to IC50 for human p38alpha
[18] = target: Proto-oncogene tyrosine-protein kinase Src (Homo sapiens) (UniProt P12931); experiment: Inhibition of human c-SRC at 10 uM using poly[Glu:Tyr] (4:1) as substrate by [gamma-33P]-ATP assay relative to control
Sequence of Proto-oncogene tyrosine-protein kinase Src (Homo sapiens) (P12931 2-536 limits assumed): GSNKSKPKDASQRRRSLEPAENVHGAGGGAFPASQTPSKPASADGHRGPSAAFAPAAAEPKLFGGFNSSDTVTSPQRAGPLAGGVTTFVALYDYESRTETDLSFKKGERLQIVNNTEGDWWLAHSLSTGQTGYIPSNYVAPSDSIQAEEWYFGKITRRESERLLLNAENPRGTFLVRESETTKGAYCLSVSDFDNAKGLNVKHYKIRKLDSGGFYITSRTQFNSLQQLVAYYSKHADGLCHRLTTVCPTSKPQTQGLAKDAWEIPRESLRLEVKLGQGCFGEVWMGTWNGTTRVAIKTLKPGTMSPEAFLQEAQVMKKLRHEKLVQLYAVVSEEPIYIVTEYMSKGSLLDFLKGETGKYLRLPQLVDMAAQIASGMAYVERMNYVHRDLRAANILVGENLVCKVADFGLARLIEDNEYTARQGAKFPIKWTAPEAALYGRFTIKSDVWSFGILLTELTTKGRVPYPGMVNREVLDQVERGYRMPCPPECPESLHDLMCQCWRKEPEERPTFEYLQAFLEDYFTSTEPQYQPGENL

Rattus norvegicus = experiment: Antiinflammatory activity in Sprague-Dawley rat assessed as inhibition of carrageenan-induced paw edema at 50 mg/kg, ip administered 1 hr before carrageenan stimulation and measured after 3 hrs relative to control; format: functional
[19] = target: DNA-dependent protein kinase catalytic subunit (Homo sapiens) (UniProt P78527); experiment: Inhibition of human DNAPK at 10 uM using EPPLSQEAFADLWKK as substrate by […]-ATP assay relative to control
[20] = target: Serine/threonine-protein kinase A-Raf (Homo sapiens) (UniProt P10398); experiment: Inhibition of human ARAF at 10 uM using MEK1 as substrate by [gamma-33P]-ATP assay relative to control
Sequence of Serine/threonine-protein kinase A-Raf (Homo sapiens) (P10398 whole entry): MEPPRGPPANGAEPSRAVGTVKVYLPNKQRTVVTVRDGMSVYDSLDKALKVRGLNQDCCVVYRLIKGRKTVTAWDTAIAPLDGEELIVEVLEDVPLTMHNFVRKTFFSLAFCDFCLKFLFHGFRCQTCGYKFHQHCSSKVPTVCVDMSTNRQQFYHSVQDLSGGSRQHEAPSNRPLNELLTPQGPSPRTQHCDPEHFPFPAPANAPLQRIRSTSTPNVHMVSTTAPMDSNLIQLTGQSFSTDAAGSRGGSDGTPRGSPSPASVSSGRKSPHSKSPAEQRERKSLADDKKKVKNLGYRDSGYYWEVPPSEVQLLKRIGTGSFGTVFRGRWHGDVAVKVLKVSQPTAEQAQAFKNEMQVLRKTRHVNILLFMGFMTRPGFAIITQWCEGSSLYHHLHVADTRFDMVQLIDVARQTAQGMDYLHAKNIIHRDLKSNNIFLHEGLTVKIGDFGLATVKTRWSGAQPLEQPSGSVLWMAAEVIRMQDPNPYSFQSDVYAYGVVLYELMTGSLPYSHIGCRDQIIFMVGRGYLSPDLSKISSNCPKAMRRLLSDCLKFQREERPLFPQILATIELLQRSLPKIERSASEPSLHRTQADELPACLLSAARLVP

[21] = Tmax in Sprague-Dawley rat at 10 mg/kg, po measured for each 30 mins by LC-MS/MS analysis; format: ADME, organism-based; conditions: in vivo
[22] = AUCinfinity in Sprague-Dawley rat at 10 mg/kg, po measured for each 30 mins by LC-MS/MS analysis; format: ADME, organism-based; parameters: dose 10 mg/kg, time infinity, route oral; conditions: in vivo
[23] = Stability in human plasma assessed as remaining compound at 10 uM incubated for 30 mins by LC-MS analysis; format: ADME, cell-free; conditions: read-out: Stability
[24] = target: Serine/threonine-protein kinase B-raf (Homo sapiens) (UniProt P15056); experiment: Inhibition of human BRAF at 10 uM using MEK1 (K97R) as substrate by [gamma-33P]-ATP assay relative to control
Sequence of Serine/threonine-protein kinase B-raf (Homo sapiens) (P15056 whole entry): as the sequence (P15056 whole entry V600E) above, with E600V counted along it

[25] = Stability in rat plasma assessed as remaining compound at 10 uM incubated for 30 mins by LC-MS analysis; format: ADME, cell-free; conditions: read-out: Stability
[26] = target: Proto-oncogene tyrosine-protein kinase ROS (Homo sapiens) (UniProt P08922); experiment: Inhibition of human ROS at 10 uM using KKKSPGEYVNIEFG as substrate by [gamma-33P]-ATP assay relative to control
[27] = AUCinfinity in Sprague-Dawley rat at 10 mg/kg, iv measured for each 30 mins by LC-MS/MS analysis; format: ADME, organism-based; parameters: dose 10 mg/kg, time infinity, route intravenous; conditions: in vivo
[28] = target: Mitogen-activated protein kinase 3 (Homo sapiens) (UniProt P27361); experiment: Inhibition of human ERK1 at 10 uM using MBP as substrate by [gamma-33P]-ATP assay relative to control
Sequence of Mitogen-activated protein kinase 3 (Homo sapiens) (P27361 whole entry): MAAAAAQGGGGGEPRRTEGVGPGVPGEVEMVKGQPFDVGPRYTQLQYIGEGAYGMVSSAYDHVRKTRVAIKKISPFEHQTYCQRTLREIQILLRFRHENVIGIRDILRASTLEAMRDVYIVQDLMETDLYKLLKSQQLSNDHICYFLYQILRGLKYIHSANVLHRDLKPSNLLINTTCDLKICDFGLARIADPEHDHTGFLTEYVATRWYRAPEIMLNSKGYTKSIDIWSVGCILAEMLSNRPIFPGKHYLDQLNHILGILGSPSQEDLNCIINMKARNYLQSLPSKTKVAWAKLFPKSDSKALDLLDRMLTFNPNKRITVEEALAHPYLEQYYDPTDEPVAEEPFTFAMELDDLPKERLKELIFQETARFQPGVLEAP

[29] = tested on: Mitogen-activated protein kinase 14 (Homo sapiens), Q16539 [T106M]; experiment: Inhibition of human p38alpha T106M mutant at 10 uM using MBP as substrate by [gamma-33P]-ATP assay relative to control
[30] = target: Dual specificity mitogen-activated protein kinase kinase 1 (Homo sapiens) (UniProt Q02750); experiment: Inhibition of human MEK1 at 10 uM using ERK2 as substrate by [gamma-33P]-ATP assay relative to control
Sequence of Dual specificity mitogen-activated protein kinase kinase 1 (Homo sapiens) (Q02750 whole entry): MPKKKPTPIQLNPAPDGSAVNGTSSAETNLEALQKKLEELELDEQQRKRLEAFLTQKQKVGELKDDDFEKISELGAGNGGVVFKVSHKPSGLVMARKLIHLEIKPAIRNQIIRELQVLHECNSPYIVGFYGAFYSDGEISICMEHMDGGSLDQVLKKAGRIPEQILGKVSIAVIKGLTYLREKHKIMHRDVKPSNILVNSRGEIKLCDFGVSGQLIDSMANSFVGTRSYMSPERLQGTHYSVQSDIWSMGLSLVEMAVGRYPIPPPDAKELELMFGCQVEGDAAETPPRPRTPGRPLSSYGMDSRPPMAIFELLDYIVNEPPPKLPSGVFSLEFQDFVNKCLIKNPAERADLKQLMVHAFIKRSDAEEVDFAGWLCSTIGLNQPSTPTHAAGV

[31] = target: Mitogen-activated protein kinase 8 (Homo sapiens) (UniProt P45983); experiment: Inhibition of human JNK1 at 10 uM using ATF2 as substrate by [gamma-33P]-ATP assay relative to control
[32] = AUClast in Sprague-Dawley rat at 10 mg/kg, iv measured for each 30 mins by LC-MS/MS analysis; format: ADME, organism-based; parameters: dose 10 mg/kg, route intravenous, time 0 - last; conditions: in vivo

With `COc1ccc(-c2nn(-c3cccc(NC(=O)c4cccc(C(F)(F)F)c4)c3)cc2-c2ccncc2)cc1Cl` the IC50 [1] was 13.1 µM, the inhibition [2] was 3.1% and the inhibition [3] was -9.88%. It also gave an inhibition [4] of 1.72%, a remaining at 2 h, 10 µM [5] of 100% and an inhibition [6] of -6.34%. It also gave an inhibition [7] of 29.5%, an inhibition [8] of 27% and an inhibition [9] of 5.62%. For the same compound, the inhibition [10] was 5.66%, the Ratio IC50 (Homo sapiens [11]) was 455 and the inhibition [12] was 2.43%. For the same compound, the inhibition [13] was 90.8%, the inhibition [14] was 6.75% and the inhibition [15] was 77.7%. The inhibition [16] was 63.2%, the Ratio IC50 (Homo sapiens [17]) was 7.18 and the inhibition [18] was 33.4%. The inhibition in vivo at 50 mg/kg (Rattus norvegicus) was 66.5%, the inhibition [19] was -1.83% and the inhibition [20] was 64.2%. The Tmax [21] was 1.2 h, the AUC(0-inf) [22] was 169 ng·h/mL and the remaining at 0.5 h, 10 µM [23] was 100%. The inhibition [24] was 54.4%, the remaining at 0.5 h, 10 µM [25] was 100% and the inhibition [26] was 5.26%. The AUC(0-inf) [27] was 1460 ng·h/mL, the inhibition [28] was -1.3% and the inhibition [29] was -4.1%. The inhibition [30] was 12.2%, the inhibition [31] was 28.2% and the AUC(0-t) at 0.5 h [32] was 1450 ng·h/mL.
